From patent US20260325485A1, “COMPOSITIONS AND METHODS FOR TREATING PANCREATITIS” (The United States Government as represented by the …, priority 2022, published 2026)
Entries after “also recorded” stand apart in the source; their conditions may differ.

Assays:
pancreas = test: Drug treatment of Gnptab−/− mice: pancreatic total cholesterol; type: in vivo, mouse
Protocol: 12-week-old Gnptab−/− mice were subjected to daily i.p. injections of 20 mg/kg simvastatin or the same dose of T0901317 for 4 or 21 days.
Total cholesterol content was measured with Cholesterol Assay kit per manufacturer's instructions. Samples of mouse pancreas and liver, cell pellet homogenates, subcellular fractions, isolated mitochondria, and serum were diluted in the reaction buffer containing cholesterol probe and incubated at 37° C. for 1 h in the dark. To measure total cholesterol, the samples were subjected to digestion with cholesterol esterase. To measure non-esterified cholesterol, the esterase was omitted from the assay.

CER/CCK-AP = test: Effect of simvastatin and BemA in CER/CCK-AP (mouse and ex-vivo model)
Protocol: FIGS. 25A-25C show reducing cholesterol overload greatly ameliorates experimental pancreatitis. CER-AP responses were measured in (A) AclyAac or (C) WT mice treated with simvastatin or bempedoic acid (BemA). (B) Acinar cells were transfected with ACLA (or mock) siRNA and subjected to ex-vivo CCK-AP. Each symbol represents an individual mouse or cell preparation. Values are mean±SE. **p<0.01, ***p<0.001 vs saline treated control mice (or mock transfection); #p<0.05, ##p<0.01, ###p<0.001 vs CER/CCK-AP in control mice (i.e. without inhibitors) or cells.
FIGS. 26A-26D preventing cholesterol overload ameliorates ex-vivo pancreatitis. Mouse pancreatic acinar cells were incubated (A, B) with simvastatin (4 μM, 3 h) or (C, D) cholesterol chelator, methyl-β-cyclodextrin (MCD; 10 mM, 1 h) and then subjected to CCK-AP for 1 (D) or 3 h (A, B). Cholesterol content (A, C) necrosis (B), and trypsin activity (D) were measured. Each symbol represents an individual cell preparation. Values are mean±SEM*p<0/05, **p<0.01 vs control; #p<0.05 ##p<0.01; vs CCK, no inhibitor.
Cholesterol metabolism is disrupted in pancreatitis as a result of lysosomal/autophagy dysfunction. Preventing acinar cell cholesterol overload with simvastatin alleviates AP in one experimental model (CER-AP). As discussed above, lysosomal/autophagy dysfunction is associated with both experimental and human pancreatitis.^6, 7, 9, 13, 17 However, until a recent publication^13 there was very little known on cholesterol metabolism in healthy pancreas, its changes in experimental and human pancreatitis, and role in disease severity. Further, effects of statins and other cholesterol-lowering drugs in pancreas, and the underlying mechanisms, have not been explored. […] This, in turn, stimulates a compensatory increase in cholesterol synthesis, further exacerbating cholesterol overload. It was further shown^13 that inhibition of cholesterol synthesis with simvastatin reduced acinar cell cholesterol overload and the severity of pancreatitis induced with supramaximal cerulein (CER), an ortholog of the hormone cholecystokinin-8 (CCK). The findings^13 reveal a previously unrecognized pathogenic role of cholesterol dysregulation in pancreatitis and indicate normalizing cholesterol metabolism as a novel therapeutic approach for disease treatment.
In summary, the published^13 and current data (FIGS. 23-26) reveal that disruption of acinar cell cholesterol metabolism is a common feature in models of experimental pancreatitis and also prominent in human disease. The key manifestation of cholesterol dyshomeostasis in pancreatitis is acinar cell cholesterol overload. […]

SMILES: CCC(C)(C)C(=O)O[C@H]1C[C@@H](C)C=C2C=C[C@H](C)[C@H](CC[C@@H]3C[C@@H](O)CC(=O)O3)[C@H]21 [simvastatin]
- total cholesterol content in pancreas, Gnptab−/− mice (pancreas; 20 mg/kg i.p. daily for 4 or 21 days): Neither treatment changed
- pancreatic total cholesterol, Gnptab−/− mice (pancreas; even for 3 weeks): failed to decrease
- cholesterol overload, CER/CCK-AP (CER/CCK-AP): reduced; also recorded: prevented
- disease severity, CER/CCK-AP (CER/CCK-AP): reduced
